Data on one molecule can be found in US4954504A, “N9 -cyclopentyl-substituted adenine derivatives having adenosine-2 receptor stimulating activity” (Ciba-Geigy Corporation, priority 1988, dated 1990).

SMILES strings stand for the structures. Counter-ions that a name gives are not always drawn.

The test relates to collagen-induced platelet aggregation. Kind of test: Inhibition of collagen-induced platelet aggregation in human plasma. In kind it is cell-based.

`CCNC(=O)[C@H]1C[C@@H](n2cnc3c(N)nc(NCCc4ccc(CCC(=O)O)cc4)nc32)[C@H](O)[C@@H]1O` (relative stereo) [Example 7a, 2-alpha,3-alphadihydroxy-4β-[2-(p-carboxyethyl-phenethylamino)-9-adenyl]-cyclopentane-1β-N-ethylcarboxamide hydrochloride] came in with a 50% inhibitory concentration (IC50) of around 1.5 µM.

By IC50 is commonly meant the concentration that gives 50% inhibition. Read a low IC50 as inhibition by little substance.
